# According to patent US20200163984A1, “USE OF ISOVALERYL SPIRAMYCIN I, II AND/OR III IN MANUFACTURING MEDICAMENT FOR TREATING AND/OR PREVENTING TUMOR, AND MEDICAMENT” (SHENYANG FUYANG PHARMACEUTICAL TECHNOLOGY CO., LTD., priority 2017, published 2020):
# Assays:
# [1] = tested on: transplanted tumor of HL60 cells; experiment: HL-60 transplanted tumor in nude mice; details: for Tumor Volume (mm3) (d30): d 30
# How it was run: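 Nude mice, 6 per group, were dosed intragastrically at 25, 50 or 100 mg/kg for 30 days once subcutaneous HL-60 xenografts (0.2 ml, 1×10^7 cells/ml in matrigel) reached ≥100 mm^3. Readouts: T/C% from relative tumor volume (V=a×b^2/2, measured every 3 days) and inhibition from excised tumor weight.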
# [2] = tested on: transplanted tumor of human gastric adenocarcinoma cell SGC7901; experiment: SGC7901 transplanted tumor in nude mice
# [3] = tested on: transplanted tumor of human lymphoma cell U937; experiment: U937 transplanted tumor in nude mice; details: for Tumor Volume (mm3) (d 1): d1
# How it was run: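 Nude mice inoculated subcutaneously (right armpit) with U937 cells in matrigel (1×10^7/ml, 0.2 ml); at tumors ≥100 mm^3, 6 per group dosed intragastrically at 25, 50 or 100 mg/kg for 30 days. Volume (a×b^2/2) every 3 days gave RTV and T/C; tumor-weight inhibition versus model group at sacrifice.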
# [4] = HL-60, high dose (100 mg/kg in method) i.g. 30 days
# [5] = HL-60, low dose (25 mg/kg in method) i.g. 30 days
# [6] = HL-60, medium dose (50 mg/kg in method) i.g. 30 days
# [7] = SGC7901, 12.5 mg/kg (low dose) i.g. 30 days
# [8] = SGC7901, 25 mg/kg (medium dose) i.g. 30 days
# [9] = SGC7901, 50 mg/kg (high dose) i.g. 30 days
# [10] = U937, high dose (100 mg/kg in method) i.g. 30 days
# [11] = U937, low dose (25 mg/kg in method) i.g. 30 days
# [12] = U937, medium dose (50 mg/kg in method) i.g. 30 days
compound,measurement,setting,value
"CCC(=O)O[C@@H]1CC(=O)O[C@H](C)C/C=C/C=C/[C@H](O[C@H]2CC[C@H](N(C)C)[C@@H](C)O2)[C@H](C)C[C@H](CC=O)[C@H](O[C@@H]2O[C@H](C)[C@@H](O[C@H]3C[C@@](C)(O)[C@@H](OC(=O)CC(C)C)[C@H](C)O3)[C@H](N(C)C)[C@H]2O)[C@H]1OC [Isovaleryl spiramycin III, isovaleryl spiramycin III]",Relative Tumor Proliferation Rate (T/C),[1]; [4],39.87%
same,tumor growth inhibition rate,[1]; [4],55.05%
same,Relative Tumor Proliferation Rate (T/C),[1]; [5],76.09%
same,tumor growth inhibition rate,[1]; [5],17.10%
same,tumor volume and relative tumor volume compared with the model group,"[1]; HL-60, low, medium and high doses, P<0.05",significantly lower
same,Relative Tumor Proliferation Rate (T/C),[1]; [6],61.90%
same,tumor growth inhibition rate,[1]; [6],29.92%
same,Inhibition Rate (%),[1]; dose 25 mg/kg,17.10%
same,Relative Tumor Proliferation Rate (T/C),[1]; dose 25 mg/kg,76.09%
same,Relative Tumor Volume (RTV),[1]; dose 25 mg/kg,8.56 ± 1.82
same,Tumor Weight,[1]; dose 25 mg/kg,1.88 ± 0.25 g
same,Tumor Volume (mm3) (d 1),[1]; dose 25 mg/kg,184.12 ± 22.53 mm3
same,Tumor Volume (mm3) (d30),[1]; dose 25 mg/kg,1543.27 ± 190.73 mm3
same,Inhibition Rate (%),[1]; dose 50 mg/kg,29.92%
same,Relative Tumor Proliferation Rate (T/C),[1]; dose 50 mg/kg,61.90%
same,Relative Tumor Volume (RTV),[1]; dose 50 mg/kg,6.96 ± 2.25
same,Tumor Weight,[1]; dose 50 mg/kg,1.59 ± 0.45 g
same,Tumor Volume (mm3) (d 1),[1]; dose 50 mg/kg,189.31 ± 24.59 mm3
same,Tumor Volume (mm3) (d30),[1]; dose 50 mg/kg,1308.87 ± 436.30 mm3
same,Inhibition Rate (%),[1]; dose 100 mg/kg,55.05%
same,Relative Tumor Proliferation Rate (T/C),[1]; dose 100 mg/kg,39.87%
same,Relative Tumor Volume (RTV),[1]; dose 100 mg/kg,4.48 ± 2.94
same,Tumor Weight,[1]; dose 100 mg/kg,1.01 ± 0.41 g
same,Tumor Volume (mm3) (d 1),[1]; dose 100 mg/kg,188.01 ± 27.66 mm3
same,Tumor Volume (mm3) (d30),[1]; dose 100 mg/kg,789.65 ± 404.78 mm3
same,mouse weight compared with the model group,"[1]; mouse, in vivo",no significant changes
same,Body Weight (g) (d1),"[1]; mouse, in vivo, 25 mg/kg",20.60 ± 1.57 g
same,Body Weight (g) (d30),"[1]; mouse, in vivo, 25 mg/kg",20.67 ± 1.51 g
same,Body Weight (g) (d1),"[1]; mouse, in vivo, 50 mg/kg",20.82 ± 1.42 g
same,Body Weight (g) (d30),"[1]; mouse, in vivo, 50 mg/kg",20.59 ± 1.36 g
same,Body Weight (g) (d1),"[1]; mouse, in vivo, 100 mg/kg",20.2l ± l .87 g
same,Body Weight (g) (d30),"[1]; mouse, in vivo, 100 mg/kg",20.25 ± 1.22 g
same,Inhibition Rate (tumor growth inhibition rate),[2]; [7],21.68%
same,Relative Tumor Proliferation Rate (T/C),[2]; [7],65.48%
same,Relative Tumor Volume (RTV),[2]; [7],5.52 ± 4.03
same,Tumor Volume (d 1),[2]; [7],186.22 ± 80.26 mm3
same,Tumor Volume (d 30),[2]; [7],1326.06 ± 96.10 mm3
same,Tumor Weight,[2]; [7],1.23 ± 0.70 g
same,Inhibition Rate (tumor growth inhibition rate),[2]; [8],41.13%
same,Relative Tumor Proliferation Rate (T/C),[2]; [8],49.44%
same,Relative Tumor Volume (RTV),[2]; [8],3.77 ± 6.51
same,Tumor Volume (d 1),[2]; [8],274.12 ± 83.50 mm3
same,Tumor Volume (d 30),[2]; [8],1473.96 ± 798.75 mm3
same,Tumor Weight,[2]; [8],0.92 ± 0.40 g
same,Inhibition Rate (tumor growth inhibition rate),[2]; [9],63.34%
same,Relative Tumor Proliferation Rate (T/C),[2]; [9],30.34%
same,Relative Tumor Volume (RTV),[2]; [9],3.66 ± 1.35
same,Tumor Volume (d 1),[2]; [9],295.39 ± 188.69 mm3
same,Tumor Volume (d 30),[2]; [9],974.67 ± 839.14 mm3
same,Tumor Weight,[2]; [9],0.58 ± 0.52 g
same,tumor volume and relative tumor volume compared with the model group,"[2]; SGC7901, low, medium and high doses, P<0.05",significantly lower
same,mouse weight compared with the model group,"[2]; mouse, in vivo",no significant changes
same,Relative Tumor Proliferation Rate (T/C),[3]; [10],38.66%
same,tumor growth inhibition rate,[3]; [10],61.77%
same,Relative Tumor Proliferation Rate (T/C),[3]; [11],63.36%
same,tumor growth inhibition rate,[3]; [11],41.19%
same,tumor volume and relative tumor volume compared with the model group,"[3]; U937, low, medium and high doses, P<0.05",significantly lower
same,Relative Tumor Proliferation Rate (T/C),[3]; [12],49.30%
same,tumor growth inhibition rate,[3]; [12],53.03%
same,Inhibition Rate (%),"[3]; U937 nude mice, 12.5 mg/kg",41.19%
same,Relative Tumor Proliferation Rate (T/C),"[3]; U937 nude mice, 12.5 mg/kg",63.36%
same,Relative Tumor Volume (RTV),"[3]; U937 nude mice, 12.5 mg/kg",10.80 ± 3.02
same,Tumor Weight,"[3]; U937 nude mice, 12.5 mg/kg",1.14 ± 0.54 g
same,Tumor Volume (mm3) (d 1),"[3]; U937 nude mice, 12.5 mg/kg",119.70 ± 18.30 mm3
same,Tumor Volume (mm3) (d30),"[3]; U937 nude mice, 12.5 mg/kg",1314.25 ± 479.76 mm3
same,Inhibition Rate (%),"[3]; U937 nude mice, 25 mg/kg",53.03%
same,Relative Tumor Proliferation Rate (T/C),"[3]; U937 nude mice, 25 mg/kg",49.30%
same,Relative Tumor Volume (RTV),"[3]; U937 nude mice, 25 mg/kg",8.40 ± 2.25
same,Tumor Weight,"[3]; U937 nude mice, 25 mg/kg",0.91 ± 0.51 g
same,Tumor Volume (mm3) (d 1),"[3]; U937 nude mice, 25 mg/kg",112.93 ± 27.42 mm3
same,Tumor Volume (mm3) (d30),"[3]; U937 nude mice, 25 mg/kg",939.79 ± 296.72 mm3
same,Inhibition Rate (%),"[3]; U937 nude mice, 50 mg/kg",61.77%
same,Relative Tumor Proliferation Rate (T/C),"[3]; U937 nude mice, 50 mg/kg",38.66%
same,Relative Tumor Volume (RTV),"[3]; U937 nude mice, 50 mg/kg",6.59 ± 0.90
same,Tumor Weight,"[3]; U937 nude mice, 50 mg/kg",0.74 ± 0.18 g
same,Tumor Volume (mm3) (d 1),"[3]; U937 nude mice, 50 mg/kg",112.85 ± 21.90 mm3
same,Tumor Volume (mm3) (d30),"[3]; U937 nude mice, 50 mg/kg",728.49 ± 51.66 mm3
same,mouse weight compared with the model group,"[3]; mouse, in vivo",no significant changes
same,Body Weight (g) (d1),"[3]; mouse, in vivo, 12.5 mg/kg",20.84 ± 0.68 g
same,Body Weight (g) (d30),"[3]; mouse, in vivo, 12.5 mg/kg",20.92 ± 0.63 g
same,Body Weight (g) (d1),"[3]; mouse, in vivo, 25 mg/kg",20.91 ± 0.58 g
same,Body Weight (g) (d30),"[3]; mouse, in vivo, 25 mg/kg",20.74 ± 0.352 g
same,Body Weight (g) (d1),"[3]; mouse, in vivo, 50 mg/kg",21.16 ± 0.61 g
same,Body Weight (g) (d30),"[3]; mouse, in vivo, 50 mg/kg",21.24 ± 0.50 g
